The values that follow come from patent US20240208898A1, “ENAMINE N-OXIDES: SYNTHESIS AND APPLICATION TO HYPOXIA-RESPONSIVE PRODRUGS AND IMAGING AGENTS” (DANA-FARBER CANCER INSTITUTE, INC., priority 2021, published 2024).

Entries after “also recorded” stand apart in the source; their conditions may differ.

One test has as its system BxPC-3 xenografts. The test is described as follows: Immunofluorescence tissue staining of tumor slices. The format is in vivo, mice. As for the experimental part:
All animal experiments were performed according to procedures and protocols approved by the Dana-Farber Cancer Institute Institutional Animal Care and Use Committee. Bx-PC3 cells were grown to confluency in antibiotic-free RPMI supplemented with 10% FBS, trypsinized, and washed three times with ice cold PBS (50 mL). Cells were resuspended in PBS at a concentration of 1.0×10^7 cells per 100 μL. 8-week old, female, homozygous NU/J mice (Jackson Laboratory) were subcutaneously injected with 1.0×10^7 Bx-PC3 cells over the right hind flank under isoflurane anesthesia. Experiments were performed when tumors reached 1000 mm^3 in size.
Mice were intraperitoneally injected with a 200 μL bolus of 25.8 mM pimonidazole and enamine N-oxide probe in 0.9% saline. Two min prior to sacrifice, mice were intravenously injected with 15 mg/kg Hoechst 33342 in 100 μL of PBS. After 1 hour, mice were sacrificed by cervical dislocation under isoflurane anesthesia. Tumors were resected and fixed in 4% paraformaldehyde in PBS for 24 hours at 4° C. with shaking. Tumors were then stored in 70% ethanol/water and submitted to the Rodent Histopathology Core at the Dana-Farber/Harvard Cancer Center for paraffin sectioning and H&E staining on glass slides. Paraffin embedded slices on glass slides were first rehydrated by successively immersing in xylenes twice for 10 minutes, 100% ethanol twice for 10 minutes, 95% ethanol/water once for 5 minutes, 70% ethanol/water for 5 minutes, 50% ethanol/water for 5 minutes, water three times for 20 seconds, and ice cold PBS+0.3% Triton X-100 once for 10 minutes. For slices to be stained by HIF1α and CD31, slides were then incubated at 90° C. in 10 mM citrate, pH 6.0 for 15 minutes. After 15 minutes, the solution was removed from heat and allowed to cool to room temperature. […] Slices were then imaged using a widefield fluorescence inverted microscope (Nikon Ti Eclipse) at the Dana-Farber Confocal and Light Microscopy Core according to the settings listed in the “General biological instrumentation” section.

The subject of test [1] is BxPC-3 xenograft mouse model. Put plainly: Near infrared imaging in live mice. The format is in vivo. The following applies: intraperitoneal 20 mg/kg. As for the experimental part:
All animal experiments were performed according to procedures and protocols approved by the Dana-Farber Cancer Institute Institutional Animal Care and Use Committee. Bx-PC3 cells were grown to confluency in antibiotic-free RPMI supplemented with 10% FBS, trypsinized, and washed three times with ice cold PBS (50 mL). Cells were resuspended in PBS at a concentration of 1.0×10^7 cells per 100 μL. 8-week old, female, homozygous NU/J mice (Jackson Laboratory) were subcutaneously injected with 1.0×10^7 Bx-PC3 cells over the right hind flank under isoflurane anesthesia. Experiments were performed when tumors reached 1000 mm^3 in size. Mice were intraperitoneally injected with a solution of Si700-enamine N-oxide probe 42 (20 mg/kg, 7.93 mM in 0.9% saline). Under isoflurane anesthesia, mice were then imaged with a Xenogen IVIS 100 fluorescence imager using an excitation of 675 nm and emission of 720 nm at various time points (0 hours (before treatment), 6 hours, 24 hours and 30 hours (after treatment)). Mice were then intraperitoneally injected with a solution of Si700-enamine N-oxide probe 42 (20 mg/kg, 7.93 mM in 0.9% saline) 30 hours post injection. After 16 hours, mice were intraperitoneally injected with a bolus of pimonidazole solution (200 μL, 25.8 mM pimonidazole in 0.9% saline). […]

`C#CCCCCC(F)/C=C/[N+]([O-])(CC)CC` (stereo not shown) [probe 39, (E)-N,N-diethyl-3-fluoronon-1-en-8-yn-1-amine oxide]: in the test on BxPC-3 xenografts (intraperitoneal, CD31, DAPI), the “localization in tumor tissue slices vs CD31 endothelial cell marker” value is given as “vasculature is primarily localized in regions distal to regions that are labeled well by enamine N-oxide 39 staining”. Also, the “localization in tumor tissue slices vs hypoxia markers” value with BxPC-3 xenografts (intraperitoneal, markers GLUT1, HIF1α, CAIX, pimonidazole) is “strong correlation; also recorded: co-localized with the GLUT1 and pimonidazole hypoxia markers”.
With `C#CCN(CCCCCC(F)/C=C/[N+]([O-])(CC)CC)C(=O)c1ccc(C2=c3cc4c(cc3[Si](C)(C)c3cc5c(cc32)CCN5C)=[N+](C)CC4)c(C)c1` (stereo not shown) [probe 42, Si700-enamine N-oxide], the “co-localization with pimonidazole in tumor tissue slices” value in the test with BxPC-3 xenografts (tumor of mouse imaged by NIR probe, CuAAC fluorescent labeling) was “robust co-localization”. Further, the “near-infrared fluorescence imaging: accumulation in the tumor” value in test [1] is “preferential accumulation of enamine N-oxide probe 42 in the tumor”.
